Data on 13 compounds can be found in the NIST ThermoML archive (doi:10.1016/j.jct.2017.02.023).

± gives the expanded uncertainty stated by the source.

The conditions of data set [1]: 81.5 kPa, Liquid, Vibrating tube method.
A short description of data set [2]: refractive index (Na D-line) (dimensionless). The conditions noted are these: 81.5 kPa, Liquid, Standard Abbe refractometry.
Data set [3] is described as follows: refractive index (Na D-line) (dimensionless); xn = mol fraction of the nth substance listed. The conditions noted are these: 81.5 kPa, Liquid, Standard Abbe refractometry, x1 = 1.
The nature of data set [4]: xn = mol fraction of the nth substance listed. The conditions noted are these: 81.5 kPa, Liquid, Vibrating tube method, x1 = 1.

Consider `CCC(C)O` (centres undefined) [butan-2-ol], for which the mass density in data set [1] (298.15 K) was 802.71 ± 1.6 kg/m3; in data set [1] (308.15 K) it was 794.2 ± 1.6 kg/m3; in data set [1] (318.15 K), 785.32 ± 1.6 kg/m3; in data set [1] (328.15 K) it was 775.52 ± 1.6 kg/m3. Besides, the refractive index in data set [2] (298.15 K) was determined as 1.39544 ± 0.0016; in data set [2] (308.15 K), 1.39105 ± 0.0016; in data set [2] (318.15 K), 1.38646 ± 0.0016; in data set [2] (328.15 K) it was 1.38175 ± 0.0016.

Turning to `CCCCCC(C)O` (centres undefined) [2-heptanol] + CNC1CCCCC1, the refractive index in data set [3] (298.15 K) is 1.41924 ± 0.0016; in data set [3] (308.15 K), 1.41505 ± 0.0016; in data set [3] (318.15 K), 1.41076 ± 0.0016; in data set [3] (328.15 K) it was 1.40647 ± 0.0016. In addition, the mass density amounted to 813.36 ± 1.6 kg/m3 in data set [4] (298.15 K), 805.72 ± 1.6 kg/m3 in data set [4] (308.15 K), 797.65 ± 1.6 kg/m3 in data set [4] (318.15 K) and 789.38 ± 1.6 kg/m3 in data set [4] (328.15 K).

With `CCCCCC(C)O` (centres undefined) [2-heptanol], the mass density in data set [1] (298.15 K) is reported as 813.36 ± 1.6 kg/m3; in data set [1] (308.15 K), 805.72 ± 1.6 kg/m3; in data set [1] (318.15 K) it was 797.65 ± 1.6 kg/m3; in data set [1] (328.15 K), 789.38 ± 1.6 kg/m3. Besides, the refractive index came to 1.41924 ± 0.0016 in data set [2] (298.15 K), 1.41505 ± 0.0016 in data set [2] (308.15 K), 1.41076 ± 0.0016 in data set [2] (318.15 K) and 1.40647 ± 0.0016 in data set [2] (328.15 K).

As for `CCCC(C)O` (centres undefined) [pentan-2-ol], the mass density in data set [1] (298.15 K) came to 805.37 ± 1.6 kg/m3; in data set [1] (308.15 K), 796.95 ± 1.6 kg/m3; in data set [1] (318.15 K) it was 788.38 ± 1.6 kg/m3; in data set [1] (328.15 K) it was 779.17 ± 1.6 kg/m3. The refractive index in data set [2] (298.15 K) was found to be 1.4045 ± 0.0016; in data set [2] (308.15 K) it was 1.40029 ± 0.0016; in data set [2] (318.15 K) it was 1.39586 ± 0.0016; in data set [2] (328.15 K), 1.39126 ± 0.0016.

As for `CCCCC(C)O` (centres undefined) [2-hexanol] + CNC1CCCCC1, the refractive index in data set [3] (298.15 K) came out at 1.41296 ± 0.0016; in data set [3] (308.15 K), 1.40853 ± 0.0016; in data set [3] (318.15 K), 1.40413 ± 0.0016; in data set [3] (328.15 K), 1.3996 ± 0.0016. Besides, the mass density in data set [4] (298.15 K) was 810.17 ± 1.6 kg/m3; in data set [4] (308.15 K), 801.94 ± 1.6 kg/m3; in data set [4] (318.15 K) it was 793.57 ± 1.6 kg/m3; in data set [4] (328.15 K), 784.6 ± 1.6 kg/m3.

With `CC(C)O` [propan-2-ol] + CNC1CCCCC1, the refractive index in data set [3] (298.15 K) worked out at 1.37511 ± 0.0016; in data set [3] (308.15 K), 1.37097 ± 0.0016; in data set [3] (318.15 K), 1.36665 ± 0.0016; in data set [3] (328.15 K), 1.36181 ± 0.0016. Besides, the mass density in data set [4] (298.15 K) is 781.05 ± 1.6 kg/m3; in data set [4] (308.15 K), 772.41 ± 1.6 kg/m3; in data set [4] (318.15 K), 763.41 ± 1.6 kg/m3; in data set [4] (328.15 K) it was 753.12 ± 1.6 kg/m3.

As for `CCCC(C)O` (centres undefined) [pentan-2-ol] + CNC1CCCCC1, the refractive index in data set [3] (298.15 K) was 1.4045 ± 0.0016; in data set [3] (308.15 K) it was 1.40029 ± 0.0016; in data set [3] (318.15 K), 1.39586 ± 0.0016; in data set [3] (328.15 K), 1.39126 ± 0.0016. For the same compound, the mass density in data set [4] (298.15 K) was determined as 805.37 ± 1.6 kg/m3; in data set [4] (308.15 K), 796.95 ± 1.6 kg/m3; in data set [4] (318.15 K), 788.38 ± 1.6 kg/m3; in data set [4] (328.15 K), 779.17 ± 1.6 kg/m3.

`CCCCC(C)O` (centres undefined) [2-hexanol]: the mass density was determined as 810.17 ± 1.6 kg/m3 in data set [1] (298.15 K), 801.94 ± 1.6 kg/m3 in data set [1] (308.15 K), 793.57 ± 1.6 kg/m3 in data set [1] (318.15 K) and 784.6 ± 1.6 kg/m3 in data set [1] (328.15 K). For the same compound, the refractive index turned out to be 1.41296 ± 0.0016 in data set [2] (298.15 K), 1.40853 ± 0.0016 in data set [2] (308.15 K), 1.40413 ± 0.0016 in data set [2] (318.15 K) and 1.3996 ± 0.0016 in data set [2] (328.15 K).

With `CCCCCCC(C)O` (centres undefined) [2-octanol] + CNC1CCCCC1, the refractive index was 1.42483 ± 0.0016 in data set [3] (298.15 K), 1.42073 ± 0.0016 in data set [3] (308.15 K), 1.41648 ± 0.0016 in data set [3] (318.15 K) and 1.41224 ± 0.0016 in data set [3] (328.15 K). Further, the mass density is reported as 817.05 ± 1.6 kg/m3 in data set [4] (298.15 K), 809.43 ± 1.6 kg/m3 in data set [4] (308.15 K), 801.32 ± 1.6 kg/m3 in data set [4] (318.15 K) and 793.06 ± 1.6 kg/m3 in data set [4] (328.15 K).

Regarding `CNC1CCCCC1` [N-methylcyclohexylamine], the mass density in data set [1] (298.15 K) was 865.2 ± 1.6 kg/m3; in data set [1] (308.15 K), 856.57 ± 1.6 kg/m3; in data set [1] (318.15 K), 847.67 ± 1.6 kg/m3; in data set [1] (328.15 K), 838.68 ± 1.6 kg/m3. In addition, the refractive index is 1.45306 ± 0.0016 in data set [2] (298.15 K), 1.44812 ± 0.0016 in data set [2] (308.15 K), 1.4431 ± 0.0016 in data set [2] (318.15 K) and 1.43809 ± 0.0016 in data set [2] (328.15 K).

Take `CCCCCCC(C)O` (centres undefined) [2-octanol]: the mass density in data set [1] (298.15 K) amounted to 817.05 ± 1.6 kg/m3; in data set [1] (308.15 K), 809.43 ± 1.6 kg/m3; in data set [1] (318.15 K), 801.32 ± 1.6 kg/m3; in data set [1] (328.15 K), 793.06 ± 1.6 kg/m3. In addition, the refractive index in data set [2] (298.15 K) worked out at 1.42483 ± 0.0016; in data set [2] (308.15 K), 1.42073 ± 0.0016; in data set [2] (318.15 K), 1.41648 ± 0.0016; in data set [2] (328.15 K), 1.41224 ± 0.0016.

`CC(C)O` [propan-2-ol]: the mass density is 781.05 ± 1.6 kg/m3 in data set [1] (298.15 K), 772.41 ± 1.6 kg/m3 in data set [1] (308.15 K), 763.41 ± 1.6 kg/m3 in data set [1] (318.15 K) and 753.12 ± 1.6 kg/m3 in data set [1] (328.15 K). For the same compound, the refractive index is 1.37511 ± 0.0016 in data set [2] (298.15 K), 1.37097 ± 0.0016 in data set [2] (308.15 K), 1.36665 ± 0.0016 in data set [2] (318.15 K) and 1.36181 ± 0.0016 in data set [2] (328.15 K).

Regarding `CCC(C)O` (centres undefined) [butan-2-ol] + CNC1CCCCC1, the refractive index in data set [3] (298.15 K) is 1.39544 ± 0.0016; in data set [3] (308.15 K), 1.39105 ± 0.0016; in data set [3] (318.15 K), 1.38646 ± 0.0016; in data set [3] (328.15 K), 1.38175 ± 0.0016. For the same compound, the mass density in data set [4] (298.15 K) was determined as 802.71 ± 1.6 kg/m3; in data set [4] (308.15 K), 794.2 ± 1.6 kg/m3; in data set [4] (318.15 K) it was 785.32 ± 1.6 kg/m3; in data set [4] (328.15 K), 775.52 ± 1.6 kg/m3.

A word on the mass density: it is mass per unit of volume. The refractive index is the speed of light in vacuum divided by its phase velocity in the sample.
